Test results as given in patent US20260265238A1, “COMPOUNDS AND PHARMACEUTICAL COMPOSITIONS THAT DEGRADE SWI/SNF-RELATED MATRIX-ASSOCIATED ACTIN-DEPENDENT REGULATOR OF CHROMATIN SUBFAMILY A” (Plexium, Inc., priority 2023, published 2026).

What was measured:
[1] = molecular target: T1, SMARCA4-HiBiT HeLa cells (protein which is expressed from the SMARCA4 gene) (Homo sapiens, UniProt P51532); assay: SMARCA4 degradation assay (HiBiT-fusion HeLa cell line, 24 h, luminescence); format: cell-based
T1 construct: protein which is expressed from the SMARCA2 and SMARCA4 genes; host or cells: HeLa (SMARCA4-HiBiT engineered line)
T1 sequence (P51532 whole entry, the tested form may be a part): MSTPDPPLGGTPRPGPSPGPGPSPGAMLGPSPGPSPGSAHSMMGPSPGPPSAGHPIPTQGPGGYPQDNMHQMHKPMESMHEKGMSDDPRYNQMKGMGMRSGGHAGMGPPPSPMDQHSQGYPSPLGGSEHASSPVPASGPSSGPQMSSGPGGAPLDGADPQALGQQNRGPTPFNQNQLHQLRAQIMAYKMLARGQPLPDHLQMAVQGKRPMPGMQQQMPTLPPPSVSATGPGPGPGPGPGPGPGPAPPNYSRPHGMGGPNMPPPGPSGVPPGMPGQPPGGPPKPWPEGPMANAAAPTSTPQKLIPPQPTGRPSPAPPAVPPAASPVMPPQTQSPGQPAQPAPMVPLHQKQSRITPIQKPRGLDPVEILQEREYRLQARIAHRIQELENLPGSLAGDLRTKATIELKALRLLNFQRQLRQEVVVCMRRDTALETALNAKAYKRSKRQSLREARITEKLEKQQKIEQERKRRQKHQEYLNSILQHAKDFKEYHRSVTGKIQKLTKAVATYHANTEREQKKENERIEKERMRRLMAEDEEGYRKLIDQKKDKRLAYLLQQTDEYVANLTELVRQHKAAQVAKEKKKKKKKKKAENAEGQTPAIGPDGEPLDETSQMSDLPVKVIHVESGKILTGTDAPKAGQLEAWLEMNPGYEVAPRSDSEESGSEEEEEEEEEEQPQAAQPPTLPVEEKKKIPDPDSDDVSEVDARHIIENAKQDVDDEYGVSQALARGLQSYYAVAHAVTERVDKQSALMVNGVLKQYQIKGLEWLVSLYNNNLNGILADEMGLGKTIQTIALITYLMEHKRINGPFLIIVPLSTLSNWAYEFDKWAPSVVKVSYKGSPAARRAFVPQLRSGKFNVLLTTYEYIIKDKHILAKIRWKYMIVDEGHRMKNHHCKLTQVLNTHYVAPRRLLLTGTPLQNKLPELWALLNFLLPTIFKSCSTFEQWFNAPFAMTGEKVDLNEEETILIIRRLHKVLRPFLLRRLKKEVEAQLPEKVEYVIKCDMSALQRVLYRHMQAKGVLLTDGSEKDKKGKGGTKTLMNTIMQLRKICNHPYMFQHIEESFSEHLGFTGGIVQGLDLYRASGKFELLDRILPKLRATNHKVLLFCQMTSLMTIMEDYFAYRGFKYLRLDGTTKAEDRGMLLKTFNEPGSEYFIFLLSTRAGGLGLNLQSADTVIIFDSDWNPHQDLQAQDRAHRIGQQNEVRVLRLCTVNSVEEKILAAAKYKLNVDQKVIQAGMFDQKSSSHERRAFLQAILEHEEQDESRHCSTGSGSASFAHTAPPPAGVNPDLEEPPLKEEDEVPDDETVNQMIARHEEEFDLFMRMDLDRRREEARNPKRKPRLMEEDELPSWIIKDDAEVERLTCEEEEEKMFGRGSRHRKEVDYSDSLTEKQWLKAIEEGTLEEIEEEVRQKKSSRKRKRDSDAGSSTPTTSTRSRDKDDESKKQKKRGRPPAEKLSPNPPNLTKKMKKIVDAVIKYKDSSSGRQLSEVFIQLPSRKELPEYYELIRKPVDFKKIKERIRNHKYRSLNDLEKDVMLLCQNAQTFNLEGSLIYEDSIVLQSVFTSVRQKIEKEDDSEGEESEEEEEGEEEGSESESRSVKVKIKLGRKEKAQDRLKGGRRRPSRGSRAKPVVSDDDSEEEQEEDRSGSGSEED
Outline: (§1)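 SMARCA2- or SMARCA4-HiBiT HeLa cells seeded overnight at 37° C, then given compound as a 10-point dilution (typically 10 μM to 300 pM) for 24 h at 37° C. Protein level read by HiBiT lytic detection luminescence; DC50 from dose-response curves; degradation also scored at 1 μM.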

[2] = molecular target: T2, SMARCA2-HiBiT HeLa cells (protein which is expressed from the SMARCA2 gene) (Homo sapiens, UniProt P51531); assay: SMARCA2 degradation assay (HiBiT-fusion HeLa cell line, 24 h, luminescence); format: cell-based
T2 construct: protein which is expressed from the SMARCA2 and SMARCA4 genes; host or cells: HeLa (SMARCA2-HiBiT engineered line)
T2 sequence (P51531 whole entry, the tested form may be a part): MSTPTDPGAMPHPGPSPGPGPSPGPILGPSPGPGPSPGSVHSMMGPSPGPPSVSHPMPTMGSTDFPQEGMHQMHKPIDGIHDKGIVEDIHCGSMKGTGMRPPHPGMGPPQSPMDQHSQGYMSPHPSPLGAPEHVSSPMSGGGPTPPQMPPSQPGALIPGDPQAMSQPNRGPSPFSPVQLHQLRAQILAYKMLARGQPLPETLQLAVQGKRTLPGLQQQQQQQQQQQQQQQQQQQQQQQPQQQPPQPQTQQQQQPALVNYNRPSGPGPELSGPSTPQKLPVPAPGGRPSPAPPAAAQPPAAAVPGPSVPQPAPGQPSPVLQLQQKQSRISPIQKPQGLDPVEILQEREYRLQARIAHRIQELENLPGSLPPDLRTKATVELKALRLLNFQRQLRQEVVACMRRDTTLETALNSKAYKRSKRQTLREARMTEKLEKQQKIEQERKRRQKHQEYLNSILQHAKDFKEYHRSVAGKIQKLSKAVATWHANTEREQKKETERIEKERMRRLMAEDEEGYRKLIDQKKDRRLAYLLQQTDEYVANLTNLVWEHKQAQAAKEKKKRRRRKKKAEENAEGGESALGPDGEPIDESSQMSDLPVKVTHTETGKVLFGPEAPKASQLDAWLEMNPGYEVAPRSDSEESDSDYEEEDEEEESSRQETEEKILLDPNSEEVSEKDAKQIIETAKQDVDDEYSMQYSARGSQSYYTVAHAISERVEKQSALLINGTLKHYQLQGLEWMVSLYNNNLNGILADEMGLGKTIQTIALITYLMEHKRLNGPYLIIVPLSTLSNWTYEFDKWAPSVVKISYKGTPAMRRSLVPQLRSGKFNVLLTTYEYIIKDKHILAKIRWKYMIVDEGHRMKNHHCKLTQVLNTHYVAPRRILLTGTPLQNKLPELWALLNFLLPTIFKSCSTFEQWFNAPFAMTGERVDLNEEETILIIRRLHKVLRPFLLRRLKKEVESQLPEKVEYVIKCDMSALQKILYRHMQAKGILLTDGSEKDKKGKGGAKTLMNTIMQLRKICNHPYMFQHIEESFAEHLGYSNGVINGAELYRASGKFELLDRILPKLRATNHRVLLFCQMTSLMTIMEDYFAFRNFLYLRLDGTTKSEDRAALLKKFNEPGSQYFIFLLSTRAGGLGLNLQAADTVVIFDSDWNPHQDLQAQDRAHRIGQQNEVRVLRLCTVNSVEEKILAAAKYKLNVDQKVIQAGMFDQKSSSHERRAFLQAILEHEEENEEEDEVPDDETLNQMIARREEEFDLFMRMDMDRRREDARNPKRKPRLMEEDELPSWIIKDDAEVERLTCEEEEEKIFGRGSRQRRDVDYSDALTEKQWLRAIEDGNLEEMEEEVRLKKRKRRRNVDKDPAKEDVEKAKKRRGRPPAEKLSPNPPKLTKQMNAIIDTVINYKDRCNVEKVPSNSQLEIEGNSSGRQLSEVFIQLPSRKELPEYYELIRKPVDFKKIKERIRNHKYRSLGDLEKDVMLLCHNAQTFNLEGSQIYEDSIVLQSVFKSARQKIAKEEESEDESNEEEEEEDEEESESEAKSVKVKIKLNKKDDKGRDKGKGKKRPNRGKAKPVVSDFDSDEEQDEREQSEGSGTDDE
Outline: as §1

inhibition at 1 µM ([1]; 1 μM) [%] | SMARCA2 % Degradation @ 1 μM ([2]; 1 μM) | SMILES | DC50 [1] [nM] | inhibition at 1 µM ([1]; @ 1 μM) [%] | DC50 [2] [nM] | SMARCA2 % Degradation @ 1 μM ([2]; @ 1 μM)
– | – | Nc1nnc(-c2ccccc2O)cc1N1CCC2C1CCN2c1ccnc(C#CCNC(=O)c2cc3ncccn3n2)n1 (stereo not drawn) [Compound P-77, N-(3-(4-(4-(3-amino-6-(2-hydroxyphenyl)pyridazin-4-yl)hexahydropyrrolo[3,2-b]pyrrol-1(2H)-yl)pyrimidin-2-yl)prop-2-yn-1-yl)pyrazolo[1,5-a]pyrimidine-2-carboxamide] | 50 to 500 | 30 to 70 | 500 to 5000 | + (+=<30%)
– | – | Cc1nn2ccn(CC#Cc3nccc(N4C5CCC4CN(c4cc(-c6ccccc6O)nnc4N)C5)n3)c(=O)c2c1C [Compound P-103, 5-(3-(4-(3-(3-amino-6-(2-hydroxyphenyl)pyridazin-4-yl)-3,8-diazabicyclo[3.2.1]octan-8-yl)pyrimidin-2-yl)prop-2-yn-1-yl)-2,3-dimethylpyrazolo[1,5-a]pyrazin-4(5H)-one] | 50 to 500 | 30 to 70 | 50 to 500 | +++ (+++=>70%)
– | – | Nc1nnc(-c2ccccc2O)cc1N1CC2CCC(C1)N2c1ccnc(C#CCNC(=O)c2cc3ncccn3n2)n1 [Compound P-119, N-(3-(4-(3-(3-amino-6-(2-hydroxyphenyl)pyridazin-4-yl)-3,8-diazabicyclo[3.2.1]octan-8-yl)pyrimidin-2-yl)prop-2-yn-1-yl)pyrazolo[1,5-a]pyrimidine-2-carboxamide] | 500 to 5000 | < 30 | > 5000 | + (+=<30%)
< 30 | ++ (++=30-70%) | C[C@H]1CCN(c2cc(-c3ccccc3O)nnc2N)CCN1c1ccc(C#N)c(C#CCN2CC[C@H](F)C2)n1 [Compound P-411, 6-{(S)-4-[3-amino-6-(o-hydroxyphenyl)-4-pyridazinyl]-7-methyl-1,4-diazepan-1-yl}-2-{3-[(S)-3-fluoro-1-pyrrolidinyl]-1-propynyl} nicotinonitrile] | 50 to 500 | – | 50 to 500 | –
– | – | CC(C)(C)OC(=O)NCC#Cc1nccc(N2CC3CC(Oc4cc(-c5ccccc5O)nnc4N)CC3C2)n1 (stereo not drawn) [Compound P-221, 4-(3-{2-[3-(tert-butoxycarbonylamino)-1-propynyl]-4-pyrimidinyl}-3-azabicyclo[3.3.0]oct-7-yloxy)-6-(o-hydroxyphenyl)-3-pyridazinamine] | 50 to 500 | > 70 | 50 to 500 | +++ (+++=>70%)
– | – | C[C@@H]1COC[C@H](C)N1CC#Cc1nccc(N2CCCN(c3cc(-c4ccccc4O)nnc3N)CC2)n1 [Compound P-318, 0-{5-[4-(2-{3-[(3R,5S)-3,5-dimethyl-4-morpholinyl]-1-propynyl}-4-pyrimidinyl)-1,4-diazepan-1-yl]-6-amino-3-pyridazinyl}phenol] | 50 to 500 | 30 to 70 | 50 to 500 | ++ (++=30-70%)
